The test system of test [1] is Rab10 pThr73. Nature of the test: Rab10 Thr73 dephosphorylation (immunoblot) in LRRK2^G2019S MEFs. To be noted: Mus musculus, read-out: pRab10 inhibited in LRRK2^G2019S MEFs. The class given is cell-based. The procedure: (§1) The second-generation PROTACs were tested in parallel with the first generation PROTACs SD75, SD82, and SD100. The compounds were tested at 33 nM or […] concentrations for 4 hours or 24 hours, running two biological replicates per condition and achieving quantifications representative of both replicates. Analysis by quantitative immunoblotting was performed with readouts of the total LRRK2 (antibody recognizes epitope in C-terminus of protein), Rab10 pThr73 (physiological substrate) and LRRK2 pSer935 (biomarker phosphorylation site).
(§2) Primary MEFs were generated as described in a previous study (Wiggin et al., Mol. Cell Biol. 2002 April; 22(8):2871-81.). Briefly, the uterine horn was collected from adult female mice at day E12.5 and transferred to a 10 cm tissue culture dish containing cold PBS. Two forceps were used to tear the yolk sacs to isolate each embryo. Forceps were cleaned thoroughly with 70% ethanol between each embryo isolation. The embryos were culled, and a tissue piece was collected in a PCR tube for genotyping. The red tissue of the embryo, which grows to become the heart and liver, was removed. The remainder of the embryo was minced with a scalpel blade and incubated with 7.5 ml trypsin-EDTA solution for 10 minutes in a 37° C. tissue culture CO2 incubator. The dish was removed from the incubator and checked under a light microscope for single cells. 7.5 ml complete media was added to the trypsinised cells, and the cell suspension was transferred to a 15 ml Falcon tube, centrifuged at 1200 rpm for 5 minutes at room temperature. The trypsin was aspirated, the cell pellet was resuspended in 5 ml fresh complete media, and the cell suspension was plated in a 60 mm tissue culture dish and incubated in a 37° C., 5% CO2 tissue culture incubator. The MEFs at this stage were considered as passage 0 and were passaged and expanded for experimental use once the genotype was confirmed by allelic sequencing and immunoblotting. MEFs were cultured in Dulbecco's modified Eagle medium (DMEM) containing 10% (v/v) fetal bovine serum (FBS), 2 mM L-glutamine, 100 U/ml penicillin, and 100 μg/ml streptomycin supplemented with 1× non-essential amino acids and 1 mM sodium pyruvate.
Culturing and passaging of adherent cell lines were carried out using aseptic technique in CL1 or CL2 (for PBMC isolation) biological safety cabinets. All cells were incubated in a 37° C. incubator with 5% CO2. Cell lines were regularly tested for mycoplasma contamination. For western blot assay, the cells were seeded in 6-well plates. […] The cells were immediately placed on ice and were scraped and collected into 1.5 ml Eppendorf tubes. Cell lysates were incubated on ice for 10 minutes prior to centrifugation at 15,000 g at 4° C. for 15 minutes. The cell pellet was discarded, and supernatant was collected for analysis by quantitative immunoblotting. For long term storage, the supernatant was flash frozen and stored at −80° C. Protein concentrations of cell lysates were determined using the Bradford assay.
Cell lysates containing a quarter of a volume of 4× NuPAGE LDS sample buffer (NP0007) supplemented with 5% β-mercaptoethanol, were heated at 95° C. for 5 minutes. 15 to 20 μg of samples were loaded onto pre-cast 4-12% Bis-Tris midi 20W or 26W gels (Thermofisher Scientific®, Cat #WG1402BOX or WG1403BOX) and resolved at 130 V for 2 hours with NuPAGE MOPS SDS running buffer (Thermofisher Scientific® Cat #NP0001-02). Proteins were electrophoretically transferred onto a 0.45 μm nitrocellulose membrane (GE Healthcare, Amersham Protran® Supported 0.45 mm NC) at 90 V for 90 min on ice in transfer buffer (48 mM Tris base and 39 mM glycine supplemented with 20% methanol). The transferred membrane was blocked with 5% (w/v) skim milk powder dissolved in tris-buffered saline with tween (TBS-T) (50 mM Tris base, 150 mM sodium chloride (NaCl), 0.1% (v/v) Tween-20) at room temperature for 1 hour.
A general note: A western blot detects proteins with antibodies after separation by electrophoresis.

Test [2] relates to Rab10 pThr73. Put plainly: Rab10 Thr73 dephosphorylation (immunoblot) in WT MEFs. The class given is cell-based, mouse. To be noted: Mus musculus, read-out: pRab10 inhibited in WT MEFs. As to the method: as §1, with “Western blot degradation assays for the LRRK2 protacs were performed with WT and PD-associated LRRK2 [G2019S] mouse embryonic fibroblasts (MEFs). The second-generation” for “The second-generation”
as §2
Culturing and passaging of adherent cell lines were carried out using aseptic technique in CL1 or CL2 (for PBMC isolation) biological safety cabinets. All cells were incubated in a 37° C. incubator with 5% CO2. Cell lines were regularly tested for mycoplasma contamination. For western blot assay, the cells were seeded in 6-well plates. After treating with testing compounds at indicated concentrations and time period, the media was removed and the cells were washed with PBS and lysed in 100 μl ice-cold complete lysis buffer containing 50 mM Tris-HCl pH 7.4, 1 mM EGTA, 10 mM 2-glycerophosphate, 50 mM sodium fluoride, 5 mM sodium pyrophosphate, 270 mM sucrose, supplemented with 1 μg/ml microcystin-LR, 1 mM sodium orthovanadate, complete EDTA-free protease inhibitor cocktail (Roche) and 1% (v/v) Triton X-100. The cells were immediately placed on ice and were scraped and collected into 1.5 ml Eppendorf tubes. Cell lysates were incubated on ice for 10 minutes prior to centrifugation at 15,000 g at 4° C. for 15 minutes. The cell pellet was discarded, and supernatant was collected for analysis by quantitative immunoblotting. For long term storage, the supernatant was flash frozen and stored at −80° C. Protein concentrations of cell lysates were determined using the Bradford assay.
Cell lysates containing a quarter of a volume of 4× NuPAGE LDS sample buffer (NP0007) supplemented with 5% β-mercaptoethanol, were heated at 95° C. for 5 minutes. […]

Test [3] relates to Rab10 pThr73. Put plainly: Rab10 Thr73 dephosphorylation (immunoblot) in LRRK2^G2019S MEFs. The class given is cell-based, mouse. To be noted: Mus musculus, read-out: pRab10 inhibited in LRRK2^G2019S MEFs.

`CNc1nc(Nc2ccc(C(=O)N3CCN(CC4CC[C@H](CSC(C)(C)C(NC(=O)C5(F)CC5)C(=O)N5C[C@H](O)C[C@H]5C(=O)NCc5ccc(-c6scnc6C)cc5)C4)CC3)cc2OC)ncc1Cl` (stereo in doubt) [XL02093, (2S,4R)-1-((S)-3-((((1S,3S)-3-((4-(4-((5-chloro-4-(methylamino)pyrimidin-2-yl)amino)-3-methoxybenzoyl)piperazin-1-yl)methyl)cyclopentyl)methyl)thio)-2-(1-fluorocyclopropane-1-carboxamido)-3-methylbutanoyl)-4-hydroxy-N-(4-(4-methylthiazol-5-yl)benzyl)pyrrolidine-2-carboxamide]: the figures for the inhibition at 0.033 µM with Rab10 pThr73 [1] (33 nM/4 h treatment) and with Rab10 pThr73 [2] (33 nM/4 h treatment) were 20 to 50% and 20 to 40%, respectively. For the same molecule, the results for the inhibition at 1 µM with Rab10 pThr73 [2] (1 μM/4 h treatment) and with Rab10 pThr73 [3] (1 μM/4 h treatment) were 75 to 90% and 80 to 100%, respectively.
As for `CNc1nc(Nc2ccc(C(=O)N3CCN(CCOCCOCCN4CCN(c5ccc6c(c5)C(=O)N(C5CCC(=O)NC5=O)C6=O)CC4)CC3)cc2OC)ncc1Cl` (centres unmarked) [SD10, 5-(4-(2-(2-(2-(4-(4-((5-chloro-4-(methylamino)pyrimidin-2-yl)amino)-3-methoxybenzoyl)piperazin-1-yl)ethoxy)ethoxy)ethyl)piperazin-1-yl)-2-(2,6-dioxopiperidin-3-yl)isoindoline-1,3-dione], the inhibition at 0.033 µM in the test with Rab10 pThr73 [1] (33 nM/4 h treatment) was 0 to 60%; in the test on Rab10 pThr73 [1] (33 nM/24 h treatment), 0 to 70%; in the test on Rab10 pThr73 [2] (33 nM/4 h treatment) it was 0 to 25%; in the test on Rab10 pThr73 [2] (33 nM/24 h treatment), 10 to 40%. For the same molecule, the inhibition at 1 µM in the test with Rab10 pThr73 [2] (1 μM/4 h treatment) fell in the range of 18 to 90%; in the test with Rab10 pThr73 [2] (1 μM/24 h treatment), 30 to 90%; in the test on Rab10 pThr73 [3] (1 μM/4 h treatment) it was 30 to 95%; in the test with Rab10 pThr73 [3] (1 μM/24 h treatment), 30 to 100%.
Consider `CNc1nc(Nc2ccc(C(=O)N3CCN(CCCN4CCN(c5ccc6c(c5)C(=O)N(C5CCC(=O)NC5=O)C6=O)CC4)CC3)cc2OC)ncc1Cl` (centres unmarked) [SD11, 5-(4-(3-(4-(4-((5-chloro-4-(methylamino)pyrimidin-2-yl)amino)-3-methoxybenzoyl)piperazin-1-yl)propyl)piperazin-1-yl)-2-(2,6-dioxopiperidin-3-yl)isoindoline-1,3-dione], for which the inhibition at 0.033 µM lay within 0 to 60% with Rab10 pThr73 [1] (33 nM/4 h treatment), 0 to 70% with Rab10 pThr73 [1] (33 nM/24 h treatment), 0 to 25% in the test on Rab10 pThr73 [2] (33 nM/4 h treatment) and 10 to 40% in the test on Rab10 pThr73 [2] (33 nM/24 h treatment). Besides, the inhibition at 1 µM in the test on Rab10 pThr73 [2] (1 μM/4 h treatment) is 18 to 90%; with Rab10 pThr73 [2] (1 μM/24 h treatment), 30 to 90%; with Rab10 pThr73 [3] (1 μM/4 h treatment), 30 to 95%; in the test on Rab10 pThr73 [3] (1 μM/24 h treatment) it was 30 to 100%.
As to `CNc1nc(Nc2ccc(C(=O)N3CCN(CCOCCOCCOc4cc(-c5scnc5C)ccc4CNC(=O)[C@@H]4C[C@@H](O)CN4C(=O)[C@@H](NC(=O)C4(F)CC4)C(C)(C)C)CC3)cc2OC)ncc1Cl` [SD12, (2S,4R)—N-(2-(2-(2-(2-(4-(4-((5-chloro-4-(methylamino)pyrimidin-2-yl)amino)-3-methoxybenzoyl)piperazin-1-yl)ethoxy)ethoxy)ethoxy)-4-(4-methylthiazol-5-yl)benzyl)-1-((S)-2-(1-fluorocyclopropane-1-carboxamido)-3,3-dimethylbutanoyl)-4-hydroxypyrrolidine-2-carboxamide], the inhibition at 0.033 µM in the test with Rab10 pThr73 [1] (33 nM/4 h treatment) is 0 to 60%; with Rab10 pThr73 [1] (33 nM/24 h treatment) it was 0 to 70%; with Rab10 pThr73 [2] (33 nM/4 h treatment), 0 to 25%; in the test with Rab10 pThr73 [2] (33 nM/24 h treatment), 10 to 40%. In addition, the inhibition at 1 µM with Rab10 pThr73 [2] (1 μM/4 h treatment) fell in the range of 18 to 90%; in the test with Rab10 pThr73 [2] (1 μM/24 h treatment), 30 to 90%; in the test on Rab10 pThr73 [3] (1 μM/4 h treatment) it was 30 to 95%; with Rab10 pThr73 [3] (1 μM/24 h treatment), 30 to 100%.
Take `CNc1nc(Nc2ccc(C(=O)N3CCN(CCCOc4cc(-c5scnc5C)ccc4CNC(=O)[C@@H]4C[C@@H](O)CN4C(=O)[C@@H](NC(=O)C4(F)CC4)C(C)(C)C)CC3)cc2OC)ncc1Cl` [SD13, (2S,4R)—N-(2-(3-(4-(4-((5-chloro-4-(methylamino)pyrimidin-2-yl)amino)-3-methoxybenzoyl)piperazin-1-yl)propoxy)-4-(4-methylthiazol-5-yl)benzyl)-1-((S)-2-(1-fluorocyclopropane-1-carboxamido)-3,3-dimethylbutanoyl)-4-hydroxypyrrolidine-2-carboxamide]: the inhibition at 0.033 µM lay in the range of 0 to 60% in the test on Rab10 pThr73 [1] (33 nM/4 h treatment), 0 to 70% in the test with Rab10 pThr73 [1] (33 nM/24 h treatment), 0 to 25% in the test on Rab10 pThr73 [2] (33 nM/4 h treatment) and 10 to 40% in the test on Rab10 pThr73 [2] (33 nM/24 h treatment). Besides, the inhibition at 1 µM in the test with Rab10 pThr73 [2] (1 μM/4 h treatment) is 18 to 90%; in the test with Rab10 pThr73 [2] (1 μM/24 h treatment), 30 to 90%; in the test on Rab10 pThr73 [3] (1 μM/4 h treatment), 30 to 95%; with Rab10 pThr73 [3] (1 μM/24 h treatment), 30 to 100%.
Regarding `CNc1nc(Nc2ccc(C(=O)N3CCN(CCOCCOCCOCCOCCOc4cc(-c5scnc5C)ccc4CNC(=O)[C@@H]4C[C@@H](O)CN4C(=O)[C@@H](NC(=O)C4(F)CC4)C(C)(C)C)CC3)cc2OC)ncc1Cl` [SD79, (2S,4R)—N-(2-((14-(4-(4-((5-chloro-4-(methylamino)pyrimidin-2-yl)amino)-3-methoxybenzoyl)piperazin-1-yl)-3,6,9,12-tetraoxatetradecyl)oxy)-4-(4-methylthiazol-5-yl)benzyl)-1-((S)-2-(1-fluorocyclopropane-1-carboxamido)-3,3-dimethylbutanoyl)-4-hydroxypyrrolidine-2-carboxamide], the inhibition at 0.033 µM with Rab10 pThr73 [1] (33 nM/4 h treatment) lay in the range of 0 to 60%; in the test on Rab10 pThr73 [1] (33 nM/24 h treatment), 0 to 70%; in the test on Rab10 pThr73 [2] (33 nM/4 h treatment) it was 0 to 25%; in the test on Rab10 pThr73 [2] (33 nM/24 h treatment), 10 to 40%. Besides, the inhibition at 1 µM in the test on Rab10 pThr73 [2] (1 μM/4 h treatment) was 18 to 90%; with Rab10 pThr73 [2] (1 μM/24 h treatment), 30 to 90%; with Rab10 pThr73 [3] (1 μM/4 h treatment), 30 to 95%; in the test on Rab10 pThr73 [3] (1 μM/24 h treatment), 30 to 100%.
